Laboratory results: US6358885B1, “Substituted phenylheterocyclic herbicides” (Mississippi State University, priority 1992, dated 2002)

Key:
cotton [1] = assay: Test B preemergence/postemergence greenhouse plant response rating 0 to 10; assay type: in vivo, Gossypium hirsutum; settings: for Plant response rating, Cotton: 0 to 10 scale
Procedure, shortened: (§1)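 Test chemicals were sprayed onto freshly planted seed and, concurrently, onto young plants between the one and four leaf stage. After a twelve- to sixteen-day greenhouse period, each species was visually compared with untreated controls.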

corn = assay: as above; assay type: in vivo, Zea mays; settings: for Plant response rating, Corn: 0 to 10 scale
Procedure, shortened: as §1

sorghum = assay: as above; assay type: in vivo, Sorghum bicolor; settings: 0 to 10 scale
Procedure, shortened: as §1

wild buckwheat = assay: Test C preemergence/postemergence greenhouse plant response rating 0 to 100; assay type: in vivo, Polygonum convolvulus; settings: POSTEMERGENCE; for Plant response rating, Wild buckwheat: 0 to 100 scale
Procedure, shortened: (§2)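 Compounds in non-phytotoxic solvent went onto sandy loam before emergence (seeded one day earlier) or onto plants at the one-to-four leaf stage. Duck salad was treated via flood water (~2.5 cm, maintained) over silt loam.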

wheat [2] = assay: as above; assay type: in vivo, Triticum aestivum; settings: POSTEMERGENCE; for Plant response rating, Wheat: 0 to 100 scale
Procedure, shortened: as §2

crabgrass = assay: Test B preemergence/postemergence greenhouse plant response rating 0 to 10; assay type: in vivo, Digitaria spp.; settings: for Plant response rating, Crabgrass: 0 to 10 scale
Procedure, shortened: as §1

cotton [3] = assay: Test C preemergence/postemergence greenhouse plant response rating 0 to 100; assay type: in vivo, Gossypium hirsutum; settings: POSTEMERGENCE; for Plant response rating, Cotton: 0 to 100 scale
Procedure, shortened: as §2

purple nutsedge = assay: Test B preemergence/postemergence greenhouse plant response rating 0 to 10; assay type: in vivo, Cyperus rotundus; settings: 0 to 10 scale
Procedure, shortened: as §1

velvetleaf = assay: Test C preemergence/postemergence greenhouse plant response rating 0 to 100; assay type: in vivo, Abutilon theophrasti; settings: POSTEMERGENCE; for Plant response rating, Velvetleaf: 0 to 100 scale
Procedure, shortened: as §2

sugar beet = assay: Test B preemergence/postemergence greenhouse plant response rating 0 to 10; assay type: in vivo, Beta vulgaris; settings: 0 to 10 scale
Procedure, shortened: as §1

wild oat = assay: as above; assay type: in vivo, Avena fatua; settings: 0 to 10 scale
Procedure, shortened: as §1

wheat [4] = assay: as above; assay type: in vivo, Triticum aestivum; settings: 0 to 10 scale
Procedure, shortened: as §1

pigweed = assay: Test C preemergence/postemergence greenhouse plant response rating 0 to 100; assay type: in vivo, Amaranthusretroflexus; settings: POSTEMERGENCE; for Plant response rating Pigweed: 0 to 100 scale
Procedure, shortened: as §2

barnyardgrass = assay: Test C flood test plant response rating 0 to 100; assay type: in vivo, Echinochloa crus-galli; settings: for Plant response rating (0 to 100), Barnyardgrass: under POSTEMERGENCE head (flood test species); for Plant response rating, Barnyardgrass: flood test species listed under POSTEMERGENCE, 0 to 100 scale
Procedure, shortened: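 Compounds in non-phytotoxic solvent applied preemergence to sandy loam one day after planting, postemergence at the 1–4 leaf stage, or to ~2.5 cm floodwater over silt loam.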

lambsquarters = assay: Test C preemergence/postemergence greenhouse plant response rating 0 to 100; assay type: in vivo, Chenopodium album; settings: POSTEMERGENCE; for Plant response rating Lambsquarters: 0 to 100 scale
Procedure, shortened: as §2

blackgrass = assay: Test B preemergence/postemergence greenhouse plant response rating 0 to 10; assay type: in vivo, Alopecurus myosuroides; settings: for Plant response rating, Blackgrass: 0 to 10 scale
Procedure, shortened: as §1

duck salad = assay: Test C flood test plant response rating 0 to 100; assay type: in vivo, Heteranthera limosa; settings: for Plant response rating Duck salad: flood test species listed under POSTEMERGENCE, 0 to 100 scale
Procedure, shortened: as §2

rice = assay: Test B preemergence/postemergence greenhouse plant response rating 0 to 10; assay type: in vivo, Oryza sativa; settings: 0 to 10 scale
Procedure, shortened: as §1

Compound: COC(=O)C(C)Oc1cc(-c2nn3c(c2Cl)CCCC3)c(F)cc1Cl (centres unmarked) [Compound 28]
- Plant response rating (0 to 10 scale), Cotton (cotton [1]; POSTEMERGENCE, Rate 50 g/ha): 10
- Plant response rating, Cotton (cotton [1]; POSTEMERGENCE, Rate 200 g/ha): 10
- Plant response rating, Cotton (cotton [1]; PREEMERGENCE, Rate 50 g/ha): 0
- Plant response rating, Cotton (cotton [1]; Rate 200 g/ha, PREEMERGENCE): 0
- Plant response rating (0 to 10 scale), Corn (corn; POSTEMERGENCE, Rate 50 g/ha): 6
- Plant response rating, Corn (corn; POSTEMERGENCE, Rate 200 g/ha): 9
- Plant response rating, Corn (corn; PREEMERGENCE, Rate 50 g/ha): 0
- Plant response rating, Corn (corn; Rate 200 g/ha, PREEMERGENCE): 2
- Plant response rating, Sorghum (sorghum; POSTEMERGENCE, Rate 50 g/ha): 7
- Plant response rating, Sorghum (sorghum; POSTEMERGENCE, Rate 200 g/ha): 9
- Plant response rating, Sorghum (sorghum; PREEMERGENCE, Rate 50 g/ha): 0
- Plant response rating, Sorghum (sorghum; Rate 200 g/ha, PREEMERGENCE): 0
- Plant response rating, Wild buckwheat (wild buckwheat; 62 g/ha): 70
- Plant response rating, Wild buckwheat (wild buckwheat; 250 g/ha): 90
- Plant response rating (0 to 100), Wild buckwheat (wild buckwheat; Rate 4 g/ha): 30
- Plant response rating (0 to 100), Wild buckwheat (wild buckwheat; Rate 16 g/ha): 60
- Plant response rating, Wheat (wheat [2]; 62 g/ha): 70
- Plant response rating, Wheat (wheat [2]; 250 g/ha): 100
- Plant response rating (0 to 100), Wheat (wheat [2]; Rate 4 g/ha): 40
- Plant response rating (0 to 100), Wheat (wheat [2]; Rate 16 g/ha): 60
- Plant response rating (0 to 10 scale), Crabgrass (crabgrass; POSTEMERGENCE, Rate 50 g/ha): 5
- Plant response rating, Crabgrass (crabgrass; POSTEMERGENCE, Rate 200 g/ha): 6
- Plant response rating, Crabgrass (crabgrass; PREEMERGENCE, Rate 50 g/ha): 0
- Plant response rating, Crabgrass (crabgrass; Rate 200 g/ha, PREEMERGENCE): 2
- Plant response rating, Cotton (cotton [3]; 62 g/ha): 100
- Plant response rating, Cotton (cotton [3]; 250 g/ha): 100
- Plant response rating (0 to 100), Cotton (cotton [3]; Rate 4 g/ha): 100
- Plant response rating (0 to 100), Cotton (cotton [3]; Rate 16 g/ha): 100
- Plant response rating, Nutsedge (purple nutsedge; POSTEMERGENCE, Rate 50 g/ha): 2
- Plant response rating, Nutsedge (purple nutsedge; POSTEMERGENCE, Rate 200 g/ha): 5
- Plant response rating, Nutsedge (purple nutsedge; PREEMERGENCE, Rate 50 g/ha): 0
- Plant response rating, Nutsedge (purple nutsedge; Rate 200 g/ha, PREEMERGENCE): 0
- Plant response rating, Velvetleaf (velvetleaf; 62 g/ha): 100
- Plant response rating, Velvetleaf (velvetleaf; 250 g/ha): 100
- Plant response rating (0 to 100), Velvetleaf (velvetleaf; Rate 4 g/ha): 100
- Plant response rating (0 to 100), Velvetleaf (velvetleaf; Rate 16 g/ha): 100
- Plant response rating, Sugar beet (sugar beet; POSTEMERGENCE, Rate 50 g/ha): 10
- Plant response rating, Sugar beet (sugar beet; POSTEMERGENCE, Rate 200 g/ha): 10
- Plant response rating, Sugar beet (sugar beet; PREEMERGENCE, Rate 50 g/ha): 10
- Plant response rating, Sugar beet (sugar beet; Rate 200 g/ha, PREEMERGENCE): 10
- Plant response rating, Wild oat (wild oat; POSTEMERGENCE, Rate 50 g/ha): 5
- Plant response rating, Wild oat (wild oat; POSTEMERGENCE, Rate 200 g/ha): 6
- Plant response rating, Wild oat (wild oat; Rate 200 g/ha, PREEMERGENCE): 2
- Plant response rating, Wheat (wheat [4]; POSTEMERGENCE, Rate 50 g/ha): 7
- Plant response rating, Wheat (wheat [4]; POSTEMERGENCE, Rate 200 g/ha): 9
- Plant response rating, Wheat (wheat [4]; PREEMERGENCE, Rate 50 g/ha): 0
- Plant response rating, Wheat (wheat [4]; Rate 200 g/ha, PREEMERGENCE): 2
- Plant response rating Pigweed (pigweed; 62 g/ha): 100
- Plant response rating Pigweed (pigweed; 250 g/ha): 100
- Plant response rating (0 to 100), Pigweed (pigweed; Rate 4 g/ha): 100
- Plant response rating (0 to 100), Pigweed (pigweed; Rate 16 g/ha): 100
- Plant response rating (0 to 100), Barnyardgrass (barnyardgrass; Rate 4 g/ha): 35
- Plant response rating (0 to 100), Barnyardgrass (barnyardgrass; Rate 16 g/ha): 50
- Plant response rating, Barnyardgrass (barnyardgrass; 62 g/ha): 95
- Plant response rating, Barnyardgrass (barnyardgrass; 250 g/ha): 100
- Plant response rating Lambsquarters (lambsquarters; 62 g/ha): 80
- Plant response rating Lambsquarters (lambsquarters; 250 g/ha): 100
- Plant response rating (0 to 100), Lambsquarters (lambsquarters; Rate 4 g/ha): 50
- Plant response rating (0 to 100), Lambsquarters (lambsquarters; Rate 16 g/ha): 80
- Plant response rating (0 to 10 scale), Blackgrass (blackgrass; POSTEMERGENCE, Rate 50 g/ha): 4
- Plant response rating, Blackgrass (blackgrass; POSTEMERGENCE, Rate 200 g/ha): 6
- Plant response rating, Blackgrass (blackgrass; PREEMERGENCE, Rate 50 g/ha): 2
- Plant response rating, Blackgrass (blackgrass; Rate 200 g/ha, PREEMERGENCE): 4
- Plant response rating (0 to 100), Duck salad (duck salad; POSTEMERGENCE section, flood test, Rate 4 g/ha): 0
- Plant response rating (0 to 100), Duck salad (duck salad; Rate 16 g/ha, under POSTEMERGENCE head (flood test species)): 0
- Plant response rating Duck salad (duck salad; 62 g/ha): 30
- Plant response rating Duck salad (duck salad; 250 g/ha): 70
- Plant response rating, Rice (rice; POSTEMERGENCE, Rate 50 g/ha): 5
- Plant response rating, Rice (rice; POSTEMERGENCE, Rate 200 g/ha): 7
- Plant response rating, Rice (rice; PREEMERGENCE, Rate 50 g/ha): 0
- Plant response rating, Rice (rice; Rate 200 g/ha, PREEMERGENCE): 2
